Source: patent US20110223177A1, “TREATMENT OF FIBROTIC EYE DISORDERS” (UNIVERSITY OF EAST ANGLIA, priority 2008, published 2011)
Entries after “also recorded” stand apart in the source; their conditions may differ.

Key:
[1] = tested on: phosphorylated (active) myosin in FHL124 cells; experiment: Western blot detection of phosphorylated (active) myosin in response to TGF-β; format: cell-based, human; settings: 15 μM ML7, 10 ng/ml TGF-β2, FHL124 cells
Procedure: FIG. 2. Western blot detection of phosphorylated (active) myosin in response to 10 ng/ml TGF-β2 (Sigma, Poole, Dorset, UK). The data presented are pooled from 3 separate experiment. Each left hand bar of the bar pairs reports the result in the absence of ML7 (indicated as “−15 uM ML-7” in the key) and the right hand bar reports the result in the presence of 15 μM ML7 (indicated as “+15 uM ML-7” in the key). Beta actin was used as a control for equivalent protein amounts. * Indicates a significant difference from untreated control group (p<0.05; student's t-test).
FHL-124 cells were washed with 1.5 ml PBS then lysed on ice in 0.5 mls Daubs lysis buffer; (50 mM HEPES pH 7.5, 150 mM NaCl, 1% Triton X-100, 1 mM EDTA, 10% glycerol, 10 mM sodium pyrophosphate, 2 mM sodium orthovanadate, 10 mM sodium fluoride, 250 mls ddH2O, 1 mM phenylmethylsulfonylfluoride and 10 μg/ml aprotinin. Lysates were pre-cleared by centrifuging at 13000 rpm at 4° C. for 10 min, and the protein content of the soluble fraction will be assayed by Bicinchoninic (BCA) protein assay. Equal amounts of protein per sample were loaded onto 10% SDS-PAGE gels for electrophoresis and transferred onto a polyvinylidene fluoride (PVDF) membrane with a BIO-RAD Trans-Blot semi-dry Transfer Cell. […] Gels were scanned using an HP scanjet 5470c and band intensity determined with Kodak 1D 3.5 software.

[2] = tested on: human lens epithelial cell line FHL124; experiment: FHL124 patch growth/contraction assay; format: cell-based; settings: FHL 124 patches
Procedure: FIG. 3. TGF-β-induced matrix contraction is suppressed by the MLCK inhibitor ML7. FHL 124 cells were seeded to form patches and maintained in the following conditions: EMEM (Eagle's minimal essential medium—standard culture medium) supplemented with 5% FCS (fetal calf serum—control)±15 μM ML7 (myosin light chain kinase inhibitor) (Calbiochem) for a 72 hour experimental period. In the graph, each left hand bar of the bar pairs reports the result in the absence of ML7 (indicated as “−15 uM ML-7” in the key) and the right hand bar reports the result in the presence of 15 μM ML7 (indicated as “[…]” in the key). Please note that numerical data can be obtained from these patches, which can be scrutinized by statistical analysis.
FIG. 4. TGF-β-induced matrix contraction is promoted by the MLCP inhibitor tautomycin (Calbiochem). FHL 124 cells were seeded to form patches and maintained in the following conditions: EMEM (standard culture medium) supplemented with 5% FCS (control)±50 nM tautomycin (myosin phosphatase inhibitor); control+10 ng/ml TGFβ1±50 nM tautomycin; control+10 ng/ml TGFβ2±50 nM tautomycin for a 48 hour experimental period. […]
FHL124 cells were seeded at 4 sites on a tissue culture dish at 5000 cells per site and maintained in EMEM supplemented with 5% FCS until confluent regions spanning approximately 5 mm developed. […] The cells were then washed in PBS and stained with Coomassie brilliant blue (a total protein dye) for 30 minutes to enable patches to be visualised and measured. […] Images of patches were captured on a CCD camera using GeneSnap and analysed using Scion image. After the patch area was measured, PBS medium was aspirated from the culture dish and replaced with 1 ml of 70% ethanol allowing Coomassie blue dye within the cells to be dissolved. […] A 200 μl sample of dye from each dish was placed in a clear plastic 96 well microtitre plate and the absorbance read at 550 nm using a plate reader. […]

human lens capsular bags = experiment: Human lens capsular bag model; format: cell-based
Procedure: FIG. 7. The effect of MLCK inhibition (using 15 μM ML7) on cell coverage of the previously cell-free posterior capsule of human capsular bags following 7 days of culture. The data represent Mean SEM (n=4). * Indicates a significant difference from control group. N.B. Control conditions are EMEM supplemented with 5% serum and 10 ng/ml TGFβ.
FIG. 8. High (top row) and low power (bottom row) phase-contrast micrographs showing cells growing on the lens capsular bag treated with 10 ng/mL TGF-β in the presence or absence of ML7 (15 μM). Contraction (wrinkles) of the lens capsular bag is evident when treated with 10 ng/ml TGF-β alone.
The model first described by Liu, C. S. C., et al., (Invest. Ophthalmol. Vis. Sci. (1996), 37, pages, 906-914) was employed. Following removal of corneo-scleral discs for transplantation purposes, human donor eyes from the East Anglian Eye Banks, UK (obtained with full ethical approval—COREC form approved 1 Dec. 2004. Ref04/Q0102/57) were used to perform a sham cataract operation. The resulting capsular bag was then dissected free of the zonules and secured on a sterile 35 mm polymethylmethacrylate (PMMA) petri dish. […] Coverage and matrix modification of the previously cell-free posterior capsule were captured on a daily basis using low-power phase microscopy and quantified using analysis software. […]

[3] = tested on: cells growing on the lens capsular bag; experiment: Immunocytochemical analysis of capsular bags at end point; format: cell-based, human; settings: 15 μM ML7, 10 ng/ml TGF-β
Procedure: FIG. 9. […] The fields of view represent 448×342 μm.
Preparations were fixed for 30 minutes in 4% formaldehyde in PBS and permeabilised in PBS containing 0.5% Triton-X100, also for 30 minutes. Anti-CPI-17 and Anti-alpha smooth muscle actin was diluted 1:100 and applied for 60 min at 35° C., followed by washing. CPI-17 was visualised with ALEXA 488-conjugated secondary antibodies (Molecular Probes, Leiden, Netherlands). The F-actin cytoskeleton was stained with Texas Red-X-phalloidin and chromatin using DAPI (Molecular Probes, Leiden, Netherlands) for 10 min at room temperature. The stained preparations were again washed extensively, floated onto microscope slides and mounted in Hydromount mounting medium (National Diagnostics, Hull, UK). Images were viewed with a Zeiss epifluorescence microscope and Axiovision software.
From the work on the cell line we chose to test ML7 i.e. the MLCK inhibitor. These studies were carried out on separate donors using a match paired format; one capsular bag was maintained in TGF-β and serum supplemented medium, while the other was maintained in TGF-β and serum supplemented medium plus 15 μM ML7. There is great consistency in cell behaviour from one eye to another from an individual donor; therefore the effects observed are due to the presence or absence of the inhibitor. […] This growth inhibition could be useful in the treatment of PCO as growth across the capsule is a critical component in the development of the condition, but this is a retardation of cell growth rather than ablation. […] In addition, we have carried out immunocytochemical analysis of the capsular bags at end point (FIG. 9).

Row | Structure (SMILES) | TGFβ-induced myosin activation (phosphorylated myosin) [1] | TGF-β-induced matrix contraction ([2]; 15 μM ML7, 72 hour, EMEM + 5% FCS) | TGF-β-induced matrix contraction (wrinkles) of the lens capsular bag (human lens capsular bags; 15 μM ML7, 10 ng/ml TGF-β) | cell coverage of the previously cell-free posterior capsule (human lens capsular bags; 15 μM ML7, 7 days of culture, EMEM + 5% serum + 10 ng/ml TGFβ, control group 100% cover) [%] | distribution of cell nuclei [3] | general organization of the cells [3] | αSMA levels versus control bags [3] | TGF-β-induced matrix contraction ([2]; 50 nM tautomycin, 10 ng/ml TGFβ1 or TGFβ2, 48 hour) | TGF-β-induced matrix contraction ([2]; 50 nM tautomycin, 10 ng/ml TGFβ1 or TGFβ2, 48 hour, listed as Tautomycin)
1 | O=S(=O)(c1cccc2c(I)cccc12)N1CCCNCC1 [ML7, (5-iodonaphthalene-1-sulfonyl)homopiperazine] | significantly inhibited TGFβ-induced myosin activation | significantly suppresses TGF-β-induced contraction; also recorded: significant reduction of TGF-β-induced contraction | does not give rise to wrinkle formation; also recorded: can suppress TGF-β-induced matrix contraction | 80 | even distribution of cell nuclei | cobblestone appearance | similar |  | 
2 | CO[C@H]([C@H](O)CC(=O)[C@@H](C)[C@@H](O)CC[C@@H](C)[C@@H]1O[C@]2(CC[C@@H](C)[C@H](CC[C@H](C)C(C)=O)O2)CC[C@@H]1C)[C@H](OC(=O)C[C@@H](O)C1=C(C)C(=O)OC1=O)C(C)C [tautomycin] |  |  |  |  |  |  |  | speeded up the rate of contraction | significantly increases TGF-β-induced contraction
